The text below walks through data of patent US20040253267A1 (priority 2003, published 2004).

Read-outs that look alike come from different tables or passages of the source.

Data set [1] relates to breast cancer cell line MA782/5S-B. The note with it: 31st day from tumor inoculation, 30 consecutive days treatment; AY/NY 0.3 ml oral once per day, CTX 30 mg/kg/day s.c. On the procedure: (§1) The biological composition comprising 10^8 cells per ml of activated and conditioned yeast cells of the strain Saccharomyces carlsbergensis Hansen strain AS2.441 was prepared by the methods described in Section 5.1 and subsections therein.
(§2) The animals used to generate the breast cancer cells for the experiments were female mice derived from an outbreed line of mouse (obtainable from the Chinese Academy of Military Medical Sciences, Beijing, China), having an average body weight of about 18 to 20 gram. About […] viable tumor cells of the breast cancer cell line MA782/5S-B (obtainable from the Cancer Institute, Chinese Academy of Medical Sciences, Beijing, China) in about 0.2 ml culture suspension were injected subcutaneously into the animals.
The mice injected with tumor cells were immediately divided into 4 experimental groups of ten mice per group and one control group. The four experimental groups were triplicated (i.e., using a total of 120 mice in the experimental groups).
The mice received the biological compositions, untreated yeast cells, CTX or saline on the same day as the tumor cells were transplanted. The mice in group CK2 also started receiving saline on the same day as the other four groups. […] The weight of the mice and the weight of the tumor were determined by standard techniques.

The test system is the same in data set [2]. The note with it: for Number of live animals remaining in the groups after 30 days of treatment: 30 mice per group. The protocol: as §2
The survival time of mice after tumor injection and treatment was studied.
as §1
The animals were prepared in a similar manner as described in Section 8.1.
The mice injected with tumor cells were immediately divided into 4 experimental groups of ten mice per group and one control group. The four experimental groups were triplicated (i.e., using a total of 120 mice in the experimental groups). In group 2AY, the mice received 0.5 ml of the biological composition once per day. In group 2NY, the mice received 0.5 ml of the untreated yeast cells once per day. In group 2CTX, the mice were injected subcutaneously with 45 mg of cyclophosphamide (CTX) per kg body weight per day. In group 2CK1, the mice received 0.5 ml of physiological saline once per day.
The mice received the biological compositions, untreated yeast cells, CTX or saline on the same day as the tumor cells were transplanted. The mice in group 2CK2 also started receiving saline on the same day as the other four groups. The biological compositions, untreated yeast cells and saline were administered orally by a feeding tube and the CTX by subcutaneous injection for 30 consecutive days. The mice were observed over 6 months from the day of tumor inoculation and survival was recorded. The weight of the mice and the weight of the tumor were determined by standard techniques.

Data set [3] deals with breast cancer cell line Ca615-B. Kind of data set: Tumor growth in 615 strain mouse model of human breast cancer (Example 6). The class given is in vivo. The note with it: 31st day from tumor inoculation, 30 consecutive days treatment; AY/NY 0.3 ml oral once per day, TSPA 1.5 mg/kg/day i.v. The protocol: In group TSPA, the mice were injected intravenously with 1.5 mg of thiotepa (TSPA) per kg body weight per day.

The test system is the same in data set [4]. Kind of data set: Survival time in 615 strain mouse model of human breast cancer (Example 7). Format: in vivo. The note with it: for Number of live animals remaining in the groups after 30 days of treatment: 30 mice per group. The protocol: In group 2TSPA, the mice were injected intravenously with 2.5 mg of thiotepa (TSPA) per kg body weight per day.

Where [5] appears, read: mice that survived, observed over 6 months, 2AY/2NY 0.5 ml oral once per day, 2TSPA 2.5 mg/kg/day i.v., 30 days.
[6] abbreviates: mice that survived, observed over 6 months, 2AY/2NY 0.5 ml oral once per day, 2CTX 45 mg/kg/day s.c., 30 days.

Regarding `O=P1(N(CCCl)CCCl)NCCCO1` (stereo not drawn) [CTX, cyclophosphamide], the “mean weight of mice and standard deviation” value in data set [1] was determined as 19.4 ± 2.2 g. The “mean weight of tumor nodules and standard deviation” value in data set [1] is 3.1 ± 1.7 g. Moreover, the “Number of live animals remaining in the groups after 30 days of treatment” value (from here on “Number of live animals remaining”) in data set [2] (0 month after cessation of treatment, 2AY/2NY 0.5 ml oral once per day, 2CTX 45 mg/kg/day s.c.) amounted to 30; in data set [2] (1 month after cessation of treatment, 2AY/2NY 0.5 ml oral once per day, 2CTX 45 mg/kg/day s.c.) it was 30; in data set [2] (2 months after cessation of treatment, 2AY/2NY 0.5 ml oral once per day, 2CTX 45 mg/kg/day s.c.), 17; in data set [2] (3 months after cessation of treatment, 2AY/2NY 0.5 ml oral once per day, 2CTX 45 mg/kg/day s.c.) it was 0; in data set [2] (4 months after cessation of treatment, 2AY/2NY 0.5 ml oral once per day, 2CTX 45 mg/kg/day s.c.), 0; in data set [2] (5 months after cessation of treatment, 2AY/2NY 0.5 ml oral once per day, 2CTX 45 mg/kg/day s.c.) it was 0. The “Number of live animals remaining” value in data set [2] (6 months after cessation of treatment, 2AY/2NY 0.5 ml oral once per day, 2CTX 45 mg/kg/day s.c.) was 0. Moreover, the “survival outcome (in words)” value in data set [2] (observed over 6 months, 2NY 0.5 ml per day, 2CTX 45 mg/kg/day) is listed as “all died during the experiment”.

In the case of `S=P(N1CC1)(N1CC1)N1CC1` [TSPA, thiotepa], the entries for the “mean weight of mice and standard deviation” value in data set [3], in data set [4] (setting [5]) and in data set [2] (setting [6]) were 20 ± 2.4 g, “all animals dead” and “all animals dead”, respectively. Besides, the “mean weight of tumor nodules and standard deviation” value was 3.1 ± 1.6 mg in data set [3], “all animals dead” in data set [4] (setting [5]) and “all animals dead” in data set [2] (setting [6]). Moreover, the “Number of live animals remaining” value in data set [4] (0 month after cessation of treatment, 2AY/2NY 0.5 ml oral once per day, 2TSPA 2.5 mg/kg/day i.v.) turned out to be 30; in data set [4] (1 month after cessation of treatment, 2AY/2NY 0.5 ml oral once per day, 2TSPA 2.5 mg/kg/day i.v.), 30; in data set [4] (2 months after cessation of treatment, 2AY/2NY 0.5 ml oral once per day, 2TSPA 2.5 mg/kg/day i.v.), 23; in data set [4] (3 months after cessation of treatment, 2AY/2NY 0.5 ml oral once per day, 2TSPA 2.5 mg/kg/day i.v.), 11; in data set [4] (4 months after cessation of treatment, 2AY/2NY 0.5 ml oral once per day, 2TSPA 2.5 mg/kg/day i.v.), 4; in data set [4] (5 months after cessation of treatment, 2AY/2NY 0.5 ml oral once per day, 2TSPA 2.5 mg/kg/day i.v.) it was 0. For the same molecule, in data set [4] (6 months after cessation of treatment, 2AY/2NY 0.5 ml oral once per day, 2TSPA 2.5 mg/kg/day i.v.), the “Number of live animals remaining” value worked out at 0. Besides, the “survival outcome (in words)” value in data set [4] (observed over 6 months, 2AY/2NY 0.5 ml per day, 2TSPA 2.5 mg/kg/day) is given as “all died during the experiment”.
